From publication PMC9475553, “SHF Acts as a Novel Tumor Suppressor in Glioblastoma Multiforme by Disrupting STAT3 Dimerization” (Advanced Science, 2022)

Experiments:
Type in all cases: cell-based, human
STAT3 dimerization [1] = assay: IP assay: STAT3 dimerization in 293T cells; conditions: transfected 293T cells incubated with C16 for 2 h
Experimental: (§1) Figure 7 Peptide derived from the STAT3‐binding sites of SHF is an effective GBM suppressive strategy. A) Binding model between SHF and STAT3 using ZDOCK server. […] B) IF staining determined the cell penetrability and nuclear‐localization of C16. U251 cells were incubated with C16 or SC for 2 h and performed IF staining using the indicated antibodies. Bars, 10 µm. C) The statical analysis of adsorption equilibrium assay detecting the binding of C16 and SC with recombinant STAT3. D) Pull‐down assay indicating C16 binds STAT3. GST‐STAT3 was incubated with C16 or SC for 2 h, and the pull‐down assay was performed using Anti‐His magnetic beads. E) IP assay showing the effect of C16 on STAT3 dimerization. 293T cells transfected with indicated vectors were incubated with C16 for 2 h. The relative quantification of STAT3 dimerization was listed. F) IP assay detecting the effect of C16 on the interaction of STAT3 and DNMT1. […] The relative quantification of STAT3/DNMT1 interaction was listed. […] The relative quantification of STAT3/DNMT1 interaction was listed. […] Positive cells were quantified 20 randomly selected fields per mouse (n = 6, Student's t‐test, **p < 0.01). […]
(§2) Immunoprecipitation (IP) experiments were performed to analyze the protein interactions. […] Precipitated products were analyzed by Western blot using the specified antibodies. […]

STAT3 dimerization [2] = assay: FRET assay: STAT3 dimerization in U251 cells; conditions: U251 cells transfected for 24 h, then C16 2 h; n=3, P < 0.01
Experimental: Spectral fluorescence resonance energy transfer (FRET) assay was used to examine the dimerization of STAT3 and interaction between STAT3 and SHF. The procedure was performed as described previously.^[ [46] ^] Briefly, U251 cells were seeded at a density of 20 000 cells/compartment on coverslips coated with 1% poly‐L‐lysine (Sigma) in 24 well‐plates. For detecting SHF inhibiting STAT3 dimerization, ectopic SHF‐expressing stable U251 cells were transfected with STAT3‐DsRed and STAT3‐EGFP. For detecting SHF binding STAT3, U251 cells were transfected with SHF‐DsRed and STAT3‐EGFP. Cells were imaged on a Leica TCS SP8 confocal microscope (40× objective and 10× objective, 488 nm Argon laser line) after 24 h. Cells were excited with 488 nm laser (donor), and the emission of the acceptor DsRed was recorded at 565 nm. The FRET efficiency was calculated on a pixel‐by‐pixel basis with the following equation: FRET efficiency = FRETcorr / (FRETcorr + Donor). […] To increase the reliability of the calculations and prevent noise from distorting the calculated ratio, we excluded pixels below 50 intensity units and saturated pixels from the calculations and set their intensities to zero. […]
Supplementary Fig. 8 Quantitative analysis of normalized FRET ratio in U251 cells (n=3, […]

STAT3/DNMT1 interaction = assay: IP assay: ectopic STAT3/DNMT1 interaction in 293T cells; conditions: 293T cells expressing ectopic STAT3 and DNMT1, C16 for 2 h
Experimental: as §1, §2

U118 cells = assay: Cell growth assay (CCK-8), U118; conditions: n=6
Experimental: Cell growth was quantified using the Cell Counting Kit‐8 Assay Kit (Bimake, Houston, TX). Each experiment was repeated at least six times. For the colony formation assay, 800 cells were seeded into each well of a six‐well plate with soft agar (Agarose; Sigma, St. Louis, MO) and maintained in a medium containing 10% FBS for 14 days. The colonies were fixed with methanol and stained with 0.1% crystal violet; the clones containing at least 50 cells were counted using an inverted microscope.
(§3) Supplementary Fig. 9 C16 inhibits tumor growth and promotes chemosensitivity in vitro.
(§4) B. Colony formation of cells treated with SC or C16 (left) and the accompanying statistical
(§5) analysis (right; n=6, Student’s t-test, **P < 0.01).
(§6) C. Annexin V staining flow cytometry assay of cells simultaneously treated with Dox with SC or
(§7) C16 for 48 h (n=3, Student’s t-test, *P < 0.05, **P < 0.01).
(§8) (1 picture or pasted object on this page, not shown here)

GBM cells = assay: Annexin V flow cytometry apoptosis assay; conditions: 25 uM stated adequate for subsequent experiments, n=3
Experimental: Cell apoptosis was detected by flow cytometry according to the manufacturer's instructions of the Annexin V‐FITC Apoptosis Detection Kit (KeyGen Biotech, China). Briefly, cells were incubated with Doxorubicin (DOX, 2 µM) for 48 h. Cells were harvested and rinsed with ice‐cold PBS and then resuspended in 200 µL of binding buffer. 10 mL of AV‐FITC stock solution was added to cell suspensions and incubated for 15 min at RT. Cells were further rinsed with 200 µL ice‐cold PBS and immediately analyzed by a FACScan flow cytometry.
as §3, §4, §5, §6, §7, §8

C16: peptide spanning SHF amino acids 388–421, palmitic acid at the N-terminus, amidated C-terminus, 3× His tags added to the C-terminal (PFSSVPEIVHHYASRKLPIKGAEHMSLLYPVAIR; palmitic acid at the N-terminus; amidated C-terminus; left off: 3× His tags, C-terminal, kept)
inhibition of STAT3 dimerization (IP) (STAT3 dimerization [1]): effectively inhibits STAT3 dimerization
inhibition of STAT3 dimerization (FRET) (STAT3 dimerization [2]): effectively inhibits STAT3 dimerization
ectopic STAT3/DNMT1 interaction (STAT3/DNMT1 interaction): decrease
cell growth inhibition (U118 cells): inhibited cell growth with concentration dependence
spontaneous apoptosis (GBM cells; C16 vs SC): without increasing spontaneous apoptosis
chemosensitivity (apoptosis with Dox) (GBM cells; simultaneous Dox with SC or C16 for 48 h): promoted chemosensitivity
